Measured values: PubChem BioAssay AID2842 (Southern Research Institute, 2010)
Converted amounts (≈) assume the structure as drawn.

What follows are compounds tested on M. tuberculosis H37Rv growth inhibition (assay: Mycobacterium tuberculosis H37Rv growth inhibition, putative kinase inhibitor library, confirmatory dose response (AID 2842);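 also: bacteria incubated one week before Alamar blue readout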).

| SMILES | IC90 |
| --- | --- |
| O=C1CN(C(=O)c2cc(Cl)ccc2Cl)C(c2ccccc2)c2cc(Cl)ccc2N1 (configuration not stated) | 6.59 µg/mL (≈ 14.8 µM) |
| Cc1cc(Cl)ccc1N/C=C(\C#N)c1nc2ccccc2[nH]1 | 23.9 µg/mL (≈ 77.4 µM) |
| O=C(Nc1nnc(-c2ccc3c(c2)CCCC3)o1)c1ccccc1 | 7.25 µg/mL (≈ 22.7 µM) |
| O=C(c1ccco1)N(CCCn1ccnc1)c1nc2c(F)cccc2s1 | 3.11 µg/mL (≈ 8.4 µM) |
| Cc1ccc(C)c(-c2nnc(NC(=O)c3ccccc3C)o2)c1 | 2.48 µg/mL (≈ 8.07 µM) |
| Cc1cccc(-c2nc(SCC(=O)Nc3ccc4c(c3)OCO4)c(-c3ccccc3)[nH]2)c1 | 9.98 µg/mL (≈ 22.5 µM) |
| O=C(Nc1nnc(-c2ccc(Br)cc2)o1)c1ccc(S(=O)(=O)N2CCCCCC2)cc1 | 16 µg/mL (≈ 31.7 µM) |
| CC(C)N1CCc2c(sc(NC(=O)c3ccc([N+](=O)[O-])s3)c2C(N)=O)C1 | 6.33 µg/mL (≈ 16 µM) |
| N=c1nnc2c3ccccc3ccc2n1O | 41.3 µg/mL (≈ 195 µM) |
| CCCC(=O)Nc1nnc(-c2ccc(C)cc2C)o1 | 2.25 µg/mL (≈ 8.68 µM) |
| Cc1cc(C)cc(Nc2cc(C)nc3c(-c4ccccc4)cnn23)c1 | 2.7 µg/mL (≈ 8.22 µM) |
| CCC(=O)Nc1nnc(-c2ccc(Cl)s2)o1 | 8.62 µg/mL (≈ 33.4 µM) |
| O=C(NCC(c1cccs1)N1CCc2ccccc2C1)c1ccc2c(c1)OCO2 (configuration not stated) | 23.9 µg/mL (≈ 58.7 µM) |
| Cc1cccc2sc(NNC(=O)c3ccc(N(C)C)cc3)nc12 | 28.6 µg/mL (≈ 87.6 µM) |
| COC(=O)c1c(NC(=O)c2ccccc2Oc2ccccc2)sc2c1CC(C)(C)NC2(C)C | 37.1 µg/mL (≈ 79.8 µM) |
| O=C(CS(=O)(=O)c1ccccc1)Nc1nc(-c2ccc3c(c2)CCCC3)cs1 | 1.02 µg/mL (≈ 2.47 µM) |
| O=C(NCCSc1c(-c2ccccc2)[nH]c2ccccc12)c1cc2ccccc2oc1=O | 2.71 µg/mL (≈ 6.15 µM) |
| COc1cc2ccccc2cc1C(=O)Nc1nnc(-c2cc(Cl)ccc2Cl)o1 | 27.6 µg/mL (≈ 66.5 µM) |
| Cc1ccc2nc(NNC(=O)c3cc4ccccc4oc3=O)sc2c1 | 1.75 µg/mL (≈ 4.98 µM) |

| SMILES | IC90 |
| --- | --- |
| COc1cccc(-c2nnc(NC(=O)c3ccc4c(c3)CCCC4)o2)c1 | 5.48 µg/mL (≈ 15.7 µM) |
| CC(=O)N1CCc2c(sc(NC(=O)c3ccc(N(C)C)cc3)c2C(N)=O)C1 | 8.5 µg/mL (≈ 22 µM) |
| Cc1ccc2sc(NNC(=O)c3cc4ccccc4oc3=O)nc2c1C | 4.21 µg/mL (≈ 11.5 µM) |
| Cc1ccc(C)c(-c2nnc(NC(=O)/C=C/c3cccs3)o2)c1 | 54.5 µg/mL (≈ 168 µM) |
| O=C(Nc1nnc(-c2ccc(Br)cc2)o1)c1ccc([N+](=O)[O-])cc1 | 50.9 µg/mL (≈ 131 µM) |
| CC1=NC2C=CC(Cl)=CC2C(c2ccccc2)=C1C(=O)/C=C/c1nc2ccccc2[nH]1 (configuration not stated) | 0.73 µg/mL (≈ 1.71 µM) |
| N#CC1=C(N)OC2=C(C(=O)CC(c3ccccc3)C2)C1C1CCCCC1 (configuration not stated) | 7.8 µg/mL (≈ 22.4 µM) |
| COc1ccc2nc(Nc3ccc4nc(C)sc4c3)sc2c1 | 15.2 µg/mL (≈ 46.5 µM) |
| COc1ccc(C2c3cccn3CCN2C(=O)Nc2ccc(Cl)cc2)cc1 (configuration not stated) | 9.87 µg/mL (≈ 25.8 µM) |
| CCOc1ccc2nc(N(CCCn3ccnc3)C(=O)c3ccc(F)cc3)sc2c1 | 7.77 µg/mL (≈ 18.3 µM) |
| O=C(Nc1nnc(-c2ccc(F)cc2)o1)c1ccco1 | 2.84 µg/mL (≈ 10.4 µM) |
| COc1cccc2sc(Nc3nc4ccc(C(C)C)cc4s3)nc12 | 2.24 µg/mL (≈ 6.3 µM) |
| COc1ccccc1Nc1nc(NCc2ccco2)c2ccccc2n1 | 5.62 µg/mL (≈ 16.2 µM) |
| O=C(Nc1nnc(C2=COCCO2)o1)c1ccc(F)cc1 | 2.21 µg/mL (≈ 7.59 µM) |
| Cc1nc2ccccc2c(=O)n1-c1cccc(NC(=O)c2cc([N+](=O)[O-])cc([N+](=O)[O-])c2)c1 | 27.8 µg/mL (≈ 62.5 µM) |
| COc1ccc2sc(Nc3nc(-c4ccccn4)cs3)nc2c1 | 1.59 µg/mL (≈ 4.67 µM) |
| Cc1ccc2sc(NNC(=O)c3nc4ccccc4s3)nc2c1C | 3.31 µg/mL (≈ 9.34 µM) |
| Cc1ccc(-c2nnc(NC(=O)CCSc3ccccc3)o2)c(C)c1 | 15.1 µg/mL (≈ 42.7 µM) |
| Cc1ccc(-c2nnc(NC(=O)c3ccccc3)o2)c(C)c1 | 8.78 µg/mL (≈ 29.9 µM) |

| SMILES | IC90 |
| --- | --- |
| CCOC(=O)COc1ccc(/C=C2\Oc3cc(OC)ccc3C2=O)cc1 | 3.32 µg/mL (≈ 9.37 µM) |
| COc1cccc2sc(Nc3nc(-c4ccc(Cl)s4)cs3)nc12 | 7.28 µg/mL (≈ 19.2 µM) |
| O=C(Nc1nnc(-c2ccc3c(c2)OCCO3)o1)C1CC1 | 33.9 µg/mL (≈ 118 µM) |
| Cc1ccc(Nc2nc(Nc3cccc(F)c3)nc(N3CCOCC3)n2)cc1C | 13.5 µg/mL (≈ 34.2 µM) |
| O=C(Nc1nnc(-c2ccccn2)o1)c1cccc(F)c1 | 3.47 µg/mL (≈ 12.2 µM) |
| Cc1[nH]c2ccccc2c1/C=N/NC(=O)c1cc(-c2ccc(Br)s2)[nH]n1 | 12.2 µg/mL (≈ 28.6 µM) |
| O=C(CCCN1C(=O)/C(=C\c2ccco2)SC1=S)Nc1ccccn1 | 4.87 µg/mL (≈ 13 µM) |
| O=C1N/C(=N\N=C\c2ccccc2O)SC1Cc1cc(Cl)ccc1Cl (configuration not stated) | 4.52 µg/mL (≈ 11.5 µM) |
| CCOc1ccc(C(=O)N2CC(=O)Nc3ccc(Br)cc3C2c2ccccc2)cc1 (configuration not stated) | 25.3 µg/mL (≈ 54.3 µM) |
| O=C(Cc1ccc(-c2ccccc2)cc1)Nc1nnc2n1CCS2 | 13.5 µg/mL (≈ 40.2 µM) |
| CCCCC(=O)Nc1nnc(-c2ccc3c(c2)CCCC3)o1 | 3.04 µg/mL (≈ 10.2 µM) |
| CCOc1cc(-c2nnc(NC(=O)c3ccccc3Cl)o2)cc(OCC)c1OCC | 1.61 µg/mL (≈ 3.73 µM) |
| COc1ccc(-n2nnc3c(SCC(N)=O)ncnc32)cc1 | 5.67 µg/mL (≈ 17.9 µM) |
| O=C(Nc1ccc(S(=O)(=O)N2CCC(c3nc4ccccc4[nH]3)CC2)cc1)c1cccc(Cl)c1 | 0.86 µg/mL (≈ 1.74 µM) |
| Cc1cc(Cl)cc2sc(N(CCCn3ccnc3)C(=O)c3cccs3)nc12 | 1.05 µg/mL (≈ 2.52 µM) |
| O=C(Nc1nnc(-c2ccc(Br)cc2)o1)C1=COCCO1 | 24.9 µg/mL (≈ 70.8 µM) |
| COc1ccc(OC)c(-c2csc(NC(=O)c3ccc([N+](=O)[O-])o3)n2)c1 | 27.1 µg/mL (≈ 72.2 µM) |
| CCOC(=O)N1CCc2c(sc(NC(=O)CCSc3ccccc3)c2C(N)=O)C1 | 8.5 µg/mL (≈ 19.6 µM) |
| CCc1ccc(-c2nnc3c4cc5c(cc4n(Cc4ccc(OC)cc4)cc2-3)OCCO5)cc1 | 5.37 µg/mL (≈ 11.9 µM) |
